From US20240034729A9, “HETEROCYCLIC COMPOUND, INTERMEDIATE, PREPARATION METHOD THEREFOR AND APPLICATION THEREOF” (WUHAN LL SCIENCE AND TECHNOLOGY DEVELOPMENT CO., LTD., priority 2018, published 2024) come the findings set out here.

Common to all, as to format: cell-based
The target in series [1] is hP2X3 (human purinergic P2X receptor subtype 3) (Homo sapiens (Human), UniProt P56373). Put plainly: FLIPR calcium assay, hP2X3 expressed in HEK293 cells. Conditions: read-out: P2X3 IC50.
For series [2], the target named is hP2X2/3 (heterodimeric receptors formed by human purinergic P2X receptors subtype 2 and subtype 3) (Homo sapiens (Human), UniProt P56373+Q9UBL9). Nature of the series: FLIPR calcium assay, hP2X2/3 expressed in HEK293 cells (P2X2/3 receptor selectivity). Conditions: for IC50: HEK293 cells expressing hP2X2/3, agonist BZ-ATP 5 μM, unit inferred.
Series [3] is described as follows: In vitro cytotoxicity assay, CCK-8 method. The settings on record: human, HepG2 cells. The protocol: In vitro cytotoxicity assay for the compounds disclosed herein was performed in HepG2 cells using the CCK-8 method. HepG2 cells (Beina Bio) in the logarithmic growth phase were collected, the concentration of cell suspension was adjusted, and then the cells were plated on a 96-well cell culture plate at 50,000 cells/well. The cells were then incubated overnight in a cell incubator of 5% […] at 37° C., and after 80-90% cell confluence was achieved, test compounds or vehicle (DMSO) at various concentration gradients were added after medium change. The plate was incubated in a cell incubator of 5% […] at 37° C. for 48 h. After the treatment, the medium in the plate was discarded. The plate was washed twice with PBS, added with CCK-8 working solution (Beyotime) at 100 μL per well, and then incubated at 37° C. for 1.5 h away from light. Absorbance at OD450nm was measured for each well on a microplate reader, and CC50 value of each compound was analyzed and calculated.
(In general: Formazan colour is commonly taken as a measure of viable cells.)

Chain of hP2X3 (human purinergic P2X receptor subtype 3) (P56373 whole entry): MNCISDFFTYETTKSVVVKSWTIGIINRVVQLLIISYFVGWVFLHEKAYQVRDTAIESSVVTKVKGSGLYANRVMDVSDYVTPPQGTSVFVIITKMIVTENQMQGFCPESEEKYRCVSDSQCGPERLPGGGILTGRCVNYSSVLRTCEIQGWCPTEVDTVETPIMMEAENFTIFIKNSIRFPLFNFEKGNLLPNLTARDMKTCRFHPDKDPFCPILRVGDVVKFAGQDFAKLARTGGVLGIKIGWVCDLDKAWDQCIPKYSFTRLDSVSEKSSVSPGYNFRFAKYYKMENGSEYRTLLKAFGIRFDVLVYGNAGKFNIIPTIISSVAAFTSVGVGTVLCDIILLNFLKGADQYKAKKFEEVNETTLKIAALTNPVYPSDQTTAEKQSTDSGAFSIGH
Chain of hP2X2/3 (heterodimeric receptors formed by human purinergic P2X receptors subtype 2 and subtype 3) (P56373 whole entry): as above
Chain of hP2X2/3 (heterodimeric receptors formed by human purinergic P2X receptors subtype 2 and subtype 3) (Q9UBL9 whole entry): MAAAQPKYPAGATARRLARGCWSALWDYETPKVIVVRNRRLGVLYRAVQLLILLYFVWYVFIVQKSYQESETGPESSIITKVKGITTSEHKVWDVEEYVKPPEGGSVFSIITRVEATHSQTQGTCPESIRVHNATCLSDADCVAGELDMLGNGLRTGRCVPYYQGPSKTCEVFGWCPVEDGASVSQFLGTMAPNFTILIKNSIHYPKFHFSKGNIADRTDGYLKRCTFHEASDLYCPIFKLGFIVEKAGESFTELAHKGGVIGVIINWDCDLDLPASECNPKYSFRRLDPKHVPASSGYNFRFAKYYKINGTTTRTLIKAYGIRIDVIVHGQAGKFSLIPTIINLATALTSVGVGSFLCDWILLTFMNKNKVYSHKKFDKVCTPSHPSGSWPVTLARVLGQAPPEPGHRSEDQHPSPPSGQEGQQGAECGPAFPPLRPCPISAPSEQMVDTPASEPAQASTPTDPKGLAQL

For the compound `CNC(=O)c1cc(F)c(-c2oc3cc(C)cnc3c2C[C@H]2CN(C(=O)OC)CCO2)c(F)c1` [Compound 54, methyl (S)-2-((2-(2,6-difluoro-4-(methylcarbamoyl)phenyl)-6-methylfurano[3,2-b]pyridin-3-yl)methyl)morpholine-4-carboxylate], the IC50 (usually the concentration that gives 50% inhibition) in series [1] is below 0.01 µM; in series [2], above 60 µM. Also, the Folds of selectivity entry in series [2] is recorded as “A (key: A: folds of selectivity >1000; B: 200< folds of selectivity ≤1000; C: folds of selectivity ≤200)”.

Turning to `COC(=O)N1CCO[C@@H](Cc2c(-c3c(F)cc(-n4cnnn4)cc3F)nc3cc(C)ccn23)C1` [Compound 58], in series [2], the Folds of selectivity entry is reported as “A (key: A: folds of selectivity >1000; B: 200< folds of selectivity ≤1000; C: folds of selectivity ≤200)” and the IC50 is above 60 µM.

As to `COC(=O)N1CCO[C@@H](Cc2c(-c3c(F)cc(NC(=O)CC4(C(=O)O)CC4)cc3F)nc3cc(C)ccn23)C1` [Compound 61, (S)-1-(2-((3,5-difluoro-4-(3-((4-(carbomethoxy<methoxycarbonyl>)morpholin-2-yl)methyl)-7-methylimidazo [1,2-a]pyridin-2-yl)phenyl)amino)-2-carbonylethyl)cyclopropanecarboxylic acid], the IC50 in series [1] was below 0.01 µM. Besides, in series [2], the Folds of selectivity entry is reported as “A (key: A: folds of selectivity >1000; B: 200< folds of selectivity ≤1000; C: folds of selectivity ≤200)” and the IC50 is above 60 µM.

Regarding `COC(=O)N1CCO[C@@H](Cc2c(-c3c(F)cc(-n4ccc(C5(C(=O)O)CC5)c4)cc3F)nc3cc(C)ccn23)C1` [Compound 136], in series [1], the 50% inhibitory concentration (IC50) lay within 0.05 to 0.2 µM.

For `COC(=O)N1CCO[C@@H](Cc2c(-c3c(F)cc(-n4ccc(C#N)c4)cc3F)nc3cc(C)ccn23)C1` [Compound 137], the IC50 in series [1] is 0.01 to 0.05 µM.

With `COC(=O)N1CCO[C@@H](Cc2c(-c3c(F)cc(-c4ccc(C#N)[nH]4)cc3F)nc3cc(C)ccn23)C1` [Compound 138, methyl (S)-2-((2-(2,6-difluoro-4-(5-cyano-1H-pyrrol-2-yl)phenyl)-7-methylimidazo[1,2-a]pyridin-3-yl)methyl)morpholine-4-carboxylate], in series [1], the half-inhibitory concentration (IC50) was below 0.01 µM. Besides, in series [2], the Folds of selectivity result is recorded as “A (key: A: folds of selectivity >1000; B: 200< folds of selectivity ≤1000; C: folds of selectivity ≤200)” and the IC50 was above 60 µM.

As to `CCC(=O)N1CCO[C@@H](Cc2c(-c3c(F)cc(-c4ccc(C#N)s4)cc3F)nc3cc(C)ccn23)C1` [Compound 140, (S)-5-(3,5-difluoro-4-(7-methyl-3-((4-propionylmorpholin-2-yl)methyl)imidazo[1,2-a]pyridin-2-yl)phenyl)thiophene-2-carbonitrile], the IC50 in series [1] lay in the range of 0.05 to 0.2 µM.

As for `COC(=O)N1CCO[C@@H](Cc2c(-c3c(F)cc(-n4ccnn4)cc3F)nc3cc(C)ccn23)C1` [Compound 141, methyl (S)-2-((2-(2,6-difluoro-4-(1H-1,2,3-triazol-1-yl)phenyl)-7-methylimidazo[1,2-a]pyridin-3-yl)methyl)morpholine-4-carboxylate], in series [1], the concentration for half-maximal inhibition (IC50) fell in the range of 0.01 to 0.05 µM.

Take `COC(=O)N1CCO[C@@H](Cc2c(-c3c(F)cc(-n4cncn4)cc3F)nc3cc(C)ccn23)C1` [Compound 142, methyl (S)-2-((2-(2,6-difluoro-4-(1H-1,2,4-triazol-1-yl)phenyl)-7-methylimidazo[1,2-a]pyridin-3-yl)methyl)morpholine-4-carboxylate]: the IC50 in series [1] was below 0.01 µM.

`COC(=O)N1CCO[C@@H](Cc2c(-c3c(F)cc(-n4cnnc4)cc3F)nc3cc(C)ccn23)C1` [Compound 143, methyl (S)-2-((2-(2,6-difluoro-4-(4H-1,2,4-triazol-4-yl)phenyl)-7-methylimidazo[1,2-a]pyridin-3-yl)methyl)morpholine-4-carboxylate]: in series [1], the half-maximal inhibitory concentration (IC50) was below 0.01 µM.

As for `COC(=O)N1CCO[C@@H](Cc2c(-c3c(F)cc(-c4ccc(C(=O)O)cn4)cc3F)nc3cc(C)ccn23)C1` [Compound 145], in series [1], the half-maximal inhibitory concentration (IC50) lay within 0.05 to 0.2 µM.

As for `COC(=O)N1CCO[C@@H](Cc2c(-c3c(F)cc(NC(C)=O)cc3F)nc3cc(F)ccn23)C1` [Compound 148], the IC50 in series [1] is below 0.01 µM.

Take `COC(=O)N1CCO[C@@H](Cc2c(-c3c(F)cc(NC(C)=O)cc3F)nc3cc(CF)ccn23)C1` [Compound 150, methyl (S)-2-((2-(4-acetamido-2,6-difluorophenyl)-7-(fluoromethyl)imidazo[1,2-a]pyridin-3-yl)methyl)morpholine-4-carboxylate]: in series [1], the IC50 was below 0.01 µM.

As to `COC(=O)N1CCO[C@@H](Cc2c(-c3c(F)cc(NC(C)=O)cc3F)nc3cc(C(F)F)ccn23)C1` [Compound 151], the IC50 in series [1] is below 0.01 µM. In addition, in series [2], the Folds of selectivity entry is on record as “A (key: A: folds of selectivity >1000; B: 200< folds of selectivity ≤1000; C: folds of selectivity ≤200)” and the concentration for half-maximal inhibition (IC50) is above 60 µM.

`COC(=O)N1CCO[C@@H](Cc2c(-c3c(F)cc(NS(C)(=O)=O)cc3F)nc3cc(C)ccn23)C1` [Compound 152]: the IC50 in series [1] is below 0.01 µM.

In the case of `COC(=O)N1CCO[C@@H](Cc2c(-c3c(F)cc(NC(C)=O)cc3F)nc3cc(C(F)(F)F)ccn23)C1` [Compound 153, methyl (S)-2-((2-(4-acetamido-2,6-difluorophenyl)-7-(trifluoromethyl)imidazo[1,2-a]pyridin-3-yl)methyl)morpholine-4-carboxylate], the half-maximal inhibitory concentration (IC50) in series [1] fell in the range of 0.05 to 0.2 µM.

Take `CCC(=O)N1CCO[C@@H](Cc2c(-c3c(F)cc(NC(C)=O)cc3F)nc3cc(Cl)ccn23)C1` [Compound 154]: the IC50 in series [1] was below 0.01 µM.

As to `CCC(=O)N1CCO[C@@H](Cc2c(-c3c(F)cc(NC(C)=O)cc3F)nc3cc(CF)ccn23)C1` [Compound 155], the IC50 in series [1] was below 0.01 µM.

As for `CCC(=O)N1CCO[C@@H](Cc2c(-c3c(F)cc(NC(C)=O)cc3F)nc3cc(C)ccn23)C1` [Compound 156], the IC50 in series [1] is below 0.01 µM.

For the compound `CCC(=O)N1CCO[C@@H](Cc2c(-c3c(F)cc(NC(C)=O)cc3F)nc3cc(C(F)F)ccn23)C1` [Compound 157], the IC50 in series [1] was below 0.01 µM.

For the compound `CC(=O)N1CCO[C@@H](Cc2c(-c3c(F)cc(-c4ncco4)cc3F)nc3cc(Cl)ccn23)C1` [Compound 159, (S)-1-(2-((7-chloro-2-(2,6-difluoro-4-(oxazol-2-yl)phenyl)imidazo[1,2-a]pyridin-3-yl)methyl)morpholino)ethan-1-one], the 50% cytotoxic concentration (CC50) (in general, the concentration that lowers cell viability or growth by half) at 48 h in series [3] was above 100 µM.

As to `COC(=O)N1CCO[C@@H](Cc2c(-c3c(F)cc(NC(=O)CC(C)C(N)=O)cc3F)nc3cc(C)ccn23)C1` (some centres unmarked) [Compound 170], the IC50 in series [1] lay within 0.05 to 0.2 µM.

Consider `COC(=O)N1CCO[C@@H](Cc2c(-c3c(F)cc(S(N)(=O)=O)cc3Cl)nc3cc(Cl)ccn23)C1` [Compound 179, methyl (S)-2-((7-chloro-2-(2-chloro-6-fluoro-4-sulfamoylphenyl)imidazo[1,2-a]pyridin-3-yl)methyl)morpholine-4-carboxylate], for which, in series [1], the half-maximal inhibitory concentration (IC50) was found to be 0.0004 µM.

Consider `COC(=O)N1CCO[C@@H](Cc2c(-c3cc(F)c(S(N)(=O)=O)cc3Cl)nc3cc(C)ccn23)C1` [Compound 180, methyl (S)-2-((2-(2-chloro-5-fluoro-4-sulfamoylphenyl)-7-methylimidazo[1,2-a]pyridin-3-yl)methyl)morpholine-4-carboxylate], for which the IC50 in series [1] came to 0.0002 µM.

With `COC(=O)N1CCO[C@@H](Cc2c(-c3c(F)cc(S(N)(=O)=O)cc3F)nc3cc(Cl)c(F)cn23)C1` [Compound 183, methyl (S)-2-((7-chloro-2-(2,6-difluoro-4-sulfamoylphenyl)-6-fluoroimidazo[1,2-a]pyridin-3-yl)methyl)morpholine-4-carboxylate], the IC50 in series [1] was 0.0055 µM.

Regarding `CNC(=O)c1ccnc(Cc2c(-c3c(F)cc(S(N)(=O)=O)cc3F)nc3cc(C)ccn23)c1` [Compound 185], the 50% inhibitory concentration (IC50) in series [1] amounted to 0.013 µM.

For the compound `Cc1ccn2c(Cc3cc(C#N)ccn3)c(-c3c(F)cc(S(N)(=O)=O)cc3F)nc2c1` [Compound 186], the 50% inhibitory concentration (IC50) in series [1] stood at 0.065 µM.

With `COC(=O)N1CCC[C@@H](Cc2c(-c3c(F)cc(S(N)(=O)=O)cc3F)nc3cc(C)ccn23)C1` [Compound 187], the half-inhibitory concentration (IC50) in series [1] was 0.05 µM.

For the compound `COC(=O)N1CCC[C@@H](Cc2c(-c3c(F)cc(S(N)(=O)=O)cc3F)nc3cc(Cl)ccn23)C1` [Compound 188], in series [1], the IC50 was 0.009 µM.

As for `COC(=O)N1CCO[C@@H](Cc2c(-c3ccc(S(N)(=O)=O)nc3Cl)nc3cc(C)ccn23)C1` [Compound 190], in series [1], the IC50 was below 0.01 µM.

Regarding `COC(=O)N1CCO[C@@H](Cc2c(-c3ncc(S(N)(=O)=O)nc3Cl)nc3cc(C)ccn23)C1` [Compound 191], the values for the concentration for half-maximal inhibition (IC50) in series [1] and in series [2] were below 0.01 µM and above 60 µM, respectively. Further, in series [2], the Folds of selectivity entry is reported as “A (key: A: folds of selectivity >1000; B: 200< folds of selectivity ≤1000; C: folds of selectivity ≤200)”.

With `COC(=O)N1CCO[C@@H](Cc2c(-c3c(F)cc(-n4cnc(C#N)c4)cc3F)nc3cc(C)ccn23)C1` [Compound 192, methyl (S)-2-((2-(4-(4-cyano-1H-imidazol-1-yl)-2,6-difluorophenyl)-7-methylimidazo[1,2-a]pyridin-3-yl)methyl)morpholine-4-carboxylate], the IC50 in series [1] fell in the range of 0.01 to 0.05 µM.

For the compound “(S,E)-4-((3,5-difluoro-4-(3-((4-(methoxycarbonyl)-morpholin-2-yl)-methyl)-7-methylimidazo[1,2-a]pyri din-2-yl)-phenyl)-amino)-4-oxobutyl-2-enoic acid [Compound 27]”, the IC50 in series [1] was below 0.01 µM.
